Measurements published in paper PMC6072100, “Exploring the links between peptoid antibacterial activity and toxicity” (MedChemComm, 2017).
Square brackets hold non-standard residues; d marks the D form. Peptide text beside a SMILES is read from it. Gly(N-(CH2)6NH2) = NCCCCCCNCC(=O)O; Gly(N-2-aminoethyl) = NCCNCC(=O)O; Nspe = C[C@H](NCC(=O)O)c1ccccc1; Nphe = O=C(O)CNCc1ccccc1; Nlys = NCCCCNCC(=O)O

How the values were obtained:
[1] = test system: E. coli, P. aeruginosa, S. aureus and S. epidermidis; assay type: cell-based
Procedure, shortened: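 Broth microdilution in Iso-sensitest broth: overnight cultures adjusted to A650nm 0.07 (0.5 McFarland), diluted ten-fold, and mixed 1:1 with 2-fold serial peptoid dilutions (final 2–100 µM, from DMSO stock). Plates were incubated 16 h at 37 °C with shaking and growth read by absorbance, in triplicate.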

[2] = test system: NIH 3T3 murine fibroblasts; set-up: method as in PMID 26849681; conditions: in vitro mammalian assays; cited from earlier work
[3] = set-up: method as in PMID 18287037; conditions: cited from earlier work

Row | Compound | MICs against the bacteria tested [1] | observed toxicity against NIH 3T3 murine fibroblasts [2] | 50% haemolytic dose (HD50) [3]
1 | NCCNCC(=O)N(CC(=O)N(CC(=O)N(CCN)CC(=O)N(CC(=O)N(CC(N)=O)Cc1ccccc1)Cc1ccccc1)Cc1ccccc1)Cc1ccccc1 [Peptoid 9, (NaeNpheNphe)2] (H-[Gly(N-2-aminoethyl)][Nphe][Nphe][Gly(N-2-aminoethyl)][Nphe][Nphe]-NH2) | 100 µM | – | –
2 | C[C@@H](c1ccccc1)N(CC(N)=O)C(=O)CN(C(=O)CN(CCCCCCN)C(=O)CN(C(=O)CN(C(=O)CNCCCCCCN)[C@@H](C)c1ccccc1)[C@@H](C)c1ccccc1)[C@@H](C)c1ccccc1 [Peptoid 12, (NahNspeNspe)2] | 100 µM | – | –
3 | C[C@@H](c1ccccc1)N(CC(N)=O)C(=O)CN(C(=O)CN(CCCCN)C(=O)CN(C(=O)CN(C(=O)CN(CCCCN)C(=O)CN(C(=O)CN(C(=O)CN(CCCCN)C(=O)CN(C(=O)CN(C(=O)CNCCCCN)[C@@H](C)c1ccccc1)[C@@H](C)c1ccccc1)[C@@H](C)c1ccccc1)[C@@H](C)c1ccccc1)[C@@H](C)c1ccccc1)[C@@H](C)c1ccccc1)[C@@H](C)c1ccccc1 [Peptoid 13, (NLysNspeNspe)4] (H-[Nlys][Nspe][Nspe][Nlys][Nspe][Nspe][Nlys][Nspe][Nspe][Nlys][Nspe][Nspe]-NH2) | – | 5.1 µM | 100 µM
4 | NCCCCNCC(=O)N(CC(=O)N(CC(=O)N(CCCCN)CC(=O)N(CC(=O)N(CC(N)=O)Cc1ccccc1)Cc1ccccc1)Cc1ccccc1)Cc1ccccc1 [Peptoid 6, (NLysNpheNphe)2] (H-[Nlys][Nphe][Nphe][Nlys][Nphe][Nphe]-NH2) | 100 µM | – | –
5 | NCCCCCCNCC(=O)N(CC(=O)N(CC(=O)N(CCCCCCN)CC(=O)N(CC(=O)N(CC(N)=O)Cc1ccccc1)Cc1ccccc1)Cc1ccccc1)Cc1ccccc1 [Peptoid 3, (NahNpheNphe)2] (H-[Gly(N-(CH2)6NH2)][Nphe][Nphe][Gly(N-(CH2)6NH2)][Nphe][Nphe]-NH2) | 100 µM | – | –
6 | C[C@@H](c1ccccc1)N(CC(N)=O)C(=O)CN(C(=O)CN(CCN)C(=O)CN(C(=O)CN(C(=O)CNCCN)[C@@H](C)c1ccccc1)[C@@H](C)c1ccccc1)[C@@H](C)c1ccccc1 [Peptoid 18, (NaeNspeNspe)2] | 100 µM | – | –
7 | C[C@@H](c1ccccc1)N(CC(N)=O)C(=O)CN(C(=O)CN(CCCCN)C(=O)CN(C(=O)CN(C(=O)CNCCCCN)[C@@H](C)c1ccccc1)[C@@H](C)c1ccccc1)[C@@H](C)c1ccccc1 [Peptoid 15, (NLysNspeNspe)2] (H-[Nlys][Nspe][Nspe][Nlys][Nspe][Nspe]-NH2) | 100 µM | – | –
